Results: patent US9645154B2, “Method for detecting cancer cell” (ARKRAY, Inc., priority 2010, dated 2017)

What was measured:
[1] = tested on: normal human dermal fibroblast cell NHDF; assay: Aminolevulinic acid labeling with or without iron ion and reducing agent (degree of false-positive results); type: cell-based; settings: 0.3 mM, 37° C., 60 min
Source text: In accordance with the conventional method, human fibrosarcoma cell HT-1080 (DS Pharma Biomedical Co., Ltd.) and normal human dermal fibroblast cell NHDF (Lonza) in culture were harvested with trypsin (Invitrogen). The cell suspension of the harvested cancer cells was centrifuged, and the supernatant was removed. The cells were then resuspended with Dulbecco's PBS (+) (Nissui Pharmaceutical Co., Ltd.) and centrifuged, and the supernatant was removed again.
The number of the cells was counted using a hemacytometer in accordance with the conventional method, and then 10^5 to 10^6 cells per sample (cell suspension) was aliquoted. The sample was centrifuged to remove the supernatant. In the case an iron ion and a reducing agent were added, 0.3 mM of aminolevulinic acid (trade name: 5-AMINOLEVULINATE HYDROCHLORIDE, Cosmo Bio Co., Ltd.), 0.3 mM of FeCl2 and 0.3 mM of ascorbic acid dissolved in Dulbecco's PBS (+) were added thereto, and the cells were suspended well. In the case an iron ion and a reducing agent were not added, 0.3 mM of aminolevulinic acid dissolved in Dulbecco's PBS (+) was added singly, and the cells were suspended well. Each of the mixture was then allowed to react at 37° C. for 60 minutes. The number of cells was adjusted, and then the cells were added dropwise to a 384-well plate. The plate was centrifuged to spin down the cells.
The fluorescence filter set: EX (excitation wavelength) 402±7.5, DM 430 or longer, BA (fluorescence wavelength) 625±15.

Blood cells = assay: Aminolevulinic acid (with FeCl2 and ascorbic acid at the same concentration) labeling, fluorescence microscopy image analysis (false-positive/negative rate); type: cell-based, human
Source text: Blood was collected from a human subject using a vacuum blood collection tube (with EDTA•2K). Blood cells were separated using HetaSep (STEMCELL Technologies) in accordance with manufacturer's instructions.
(§1) When performing the hemolyzing treatment, the collected blood cell fraction was hemolyzed using ammonium chloride (STEMCELL Technologies) at room temperature according to the manufacture's manuals.
(§2) The number of the cells was counted using a hemacytometer in accordance with the conventional method, and then 10^5 to 10^6 cells per sample (cell suspension) was aliquoted. The sample was centrifuged to remove the supernatant. Subsequently, aminolevulinic acid 5-AMINOLEVULINATE HYDROCHLORIDE (trade name, Cosmo Bio Co., Ltd., at the final concentration given in Table 7 or 8) dissolved in Dulbecco's PBS (+) and FeCl2 and ascorbic acid having the same concentration as that of aminolevulinic acid, respectively, were added thereto, and the cells were suspended well. The number of the cells was adjusted, and then the cells were added dropwise to a 384-well plate. The plate was centrifuged to spin down the cells. The image was captured with a fluorescence microscope (Nikon Corp.).
(§3) The wavelengths for the fluorescence filter set: EX (excitation wavelength): 402±7.5, DM: 430 or longer, BA (fluorescence wavelength): 625±15.
The acquired images were analyzed using an image analysis software NIS-ELEMENTS (trade name, Nikon Corp.) to evaluate the fluorescence intensity of the cell.

[2] = tested on: human prostate cancer cell line PC3; assay: Aminolevulinic acid (with FeCl2 and ascorbic acid at the same concentration) labeling, fluorescence microscopy image analysis (positive rate); type: cell-based
Source text: In accordance with the conventional method, cultured human prostate cancer cell line PC3 (DS Pharma Biomedical Co., Ltd.) was harvested with trypsin (Invitrogen). The human gastric cancer cell line SNU-1 (ATCC), which is a suspension cell line, was directly harvested without any trypsin treatment. The cell suspension of the harvested cancer cells was centrifuged, and the supernatant was removed. The cells were resuspended with Dulbecco's PBS (+) (Nissui Pharmaceutical Co., Ltd.) and centrifuged, and the supernatant was removed again.
as §1, §2, §3
The acquired images were analyzed using an image analysis software NIS-ELEMENTS (trade name, Nikon Corp.) to evaluate the fluorescence intensity of the cell. […]

[3] = Ascorbic acid 0.3 mM, FeC12 0.3 mM
[4] = hemolyzed, 0.3 mM, 60 min, 37° C., threshold value 198 (Gastric cancer)
[5] = hemolyzed, 0.3 mM, 60 min, 37° C., threshold value 203 (Fibrosarcoma)
[6] = hemolyzed, 0.3 mM, 60 min, 37° C., threshold value 207 (Colon adenocarcinoma)
[7] = hemolyzed, 0.3 mM, 60 min, 37° C., threshold value 212 (Alveolar epithelial cancer)
[8] = hemolyzed, 0.3 mM, 60 min, 37° C., threshold value 265 (Prostate cancer)
[9] = hemolyzed, 0.3 mM, 60 min, 37° C., threshold value 268 (Breast adenocarcinoma)
[10] = hemolyzed, 0.1 mM, 37° C., 60 min
[11] = hemolyzed, 0.3 mM, 37° C., 60 min (concentration series)
[12] = hemolyzed, 1 mM, 37° C., 60 min
[13] = hemolyzed, 4° C., 0.3 mM, 60 min
[14] = hemolyzed, 23° C., 0.3 mM, 60 min
[15] = hemolyzed, 37° C., 0.3 mM, 60 min (temperature series)
[16] = hemolyzed, 30 min, 0.3 mM, 37° C.
[17] = hemolyzed, 60 min, 0.3 mM, 37° C. (time series)
[18] = hemolyzed, 120 min, 0.3 mM, 37° C.
[19] = without hemolyzing treatment, 0.1 mM, 37° C., 60 min
[20] = without hemolyzing treatment, 0.3 mM, 37° C., 60 min (concentration series)
[21] = without hemolyzing treatment, 1 mM, 37° C., 60 min
[22] = without hemolyzing treatment, 4° C., 0.3 mM, 60 min
[23] = without hemolyzing treatment, 23° C., 0.3 mM, 60 min
[24] = without hemolyzing treatment, 37° C., 0.3 mM, 60 min (temperature series)
[25] = without hemolyzing treatment, 30 min, 0.3 mM, 37° C.
[26] = without hemolyzing treatment, 60 min, 0.3 mM, 37° C. (time series)
[27] = without hemolyzing treatment, 120 min, 0.3 mM, 37° C.

For `NCC(=O)CCC(=O)O` [aminolevulinic acid, 5-amino-4-oxopentanoic acid], the “Negative rate (Normal epithelial cells (NHDF))” value ([1]; Ascorbic acid 0, FeC12 0) was 37.7%, the “Positive rate (Normal epithelial cells (NHDF))” value ([1]; Ascorbic acid 0, FeC12 0) was 62.3% and the “Negative rate (Normal epithelial cells (NHDF))” value [1, 3] was 85.7%. The “Positive rate (Normal epithelial cells (NHDF))” value [1, 3] was 14.3%, the “Negative rate (Blood cells (fresh blood))” value (Blood cells; [4]) was 95.2% and the “Positive rate (Blood cells (fresh blood))” value (Blood cells; [4]) was 4.8%. The “Negative rate (Blood cells (fresh blood))” value (Blood cells; [5]) was 95.2%, the “Positive rate (Blood cells (fresh blood))” value (Blood cells; [5]) was 4.8% and the “Negative rate (Blood cells (fresh blood))” value (Blood cells; [6]) was 95.2%. The “Positive rate (Blood cells (fresh blood))” value (Blood cells; [6]) was 4.8%, the “Negative rate (Blood cells (fresh blood))” value (Blood cells; [7]) was 95.2% and the “Positive rate (Blood cells (fresh blood))” value (Blood cells; [7]) was 4.8%. For the same molecule, the “Negative rate (Blood cells (fresh blood))” value (Blood cells; [8]) was 95.2%, the “Positive rate (Blood cells (fresh blood))” value (Blood cells; [8]) was 4.8% and the “Negative rate (Blood cells (fresh blood))” value (Blood cells; [9]) was 95.6%. For the same molecule, the “Positive rate (Blood cells (fresh blood))” value (Blood cells; [9]) was 4.4%, the “Negative rate (Blood cells)” value (Blood cells; [10]) was 98% and the “Positive rate (Blood cells)” value (Blood cells; [10]) was 2%. For the same molecule, the “Negative rate (Blood cells)” value (Blood cells; [11]) was 93%, the “Positive rate (Blood cells)” value (Blood cells; [11]) was 7% and the “Negative rate (Blood cells)” value (Blood cells; [12]) was 87%. The “Positive rate (Blood cells)” value (Blood cells; [12]) was 13%, the “Negative rate (Blood cells)” value (Blood cells; [13]) was 98% and the “Positive rate (Blood cells)” value (Blood cells; [13]) was 2%. For the same molecule, the “Negative rate (Blood cells)” value (Blood cells; [14]) was 98%, the “Positive rate (Blood cells)” value (Blood cells; [14]) was 2% and the “Negative rate (Blood cells)” value (Blood cells; [15]) was 88%. The “Positive rate (Blood cells)” value (Blood cells; [15]) was 12%, the “Negative rate (Blood cells)” value (Blood cells; [16]) was 98% and the “Positive rate (Blood cells)” value (Blood cells; [16]) was 2%. The “Negative rate (Blood cells)” value (Blood cells; [17]) was 100%, the “Positive rate (Blood cells)” value (Blood cells; [17]) was 0% and the “Negative rate (Blood cells)” value (Blood cells; [18]) was 94%. The “Positive rate (Blood cells)” value (Blood cells; [18]) was 6%, the “Negative rate (Blood cells)” value (Blood cells; [19]) was 98% and the “Positive rate (Blood cells)” value (Blood cells; [19]) was 2%. The “Negative rate (Blood cells)” value (Blood cells; [20]) was 99%, the “Positive rate (Blood cells)” value (Blood cells; [20]) was 1% and the “Negative rate (Blood cells)” value (Blood cells; [21]) was 93%. For the same molecule, the “Positive rate (Blood cells)” value (Blood cells; [21]) was 7%, the “Negative rate (Blood cells)” value (Blood cells; [22]) was 98% and the “Positive rate (Blood cells)” value (Blood cells; [22]) was 2%. For the same molecule, the “Negative rate (Blood cells)” value (Blood cells; [23]) was 100%, the “Positive rate (Blood cells)” value (Blood cells; [23]) was 0% and the “Negative rate (Blood cells)” value (Blood cells; [24]) was 100%. For the same molecule, the “Positive rate (Blood cells)” value (Blood cells; [24]) was 0%, the “Negative rate (Blood cells)” value (Blood cells; [25]) was 98% and the “Positive rate (Blood cells)” value (Blood cells; [25]) was 2%. For the same molecule, the “Negative rate (Blood cells)” value (Blood cells; [26]) was 99%, the “Positive rate (Blood cells)” value (Blood cells; [26]) was 1% and the “Negative rate (Blood cells)” value (Blood cells; [27]) was 86%. The “Positive rate (Blood cells)” value (Blood cells; [27]) was 14%, the “Positive rate (Cancer cells)” value ([2]; Prostate cancer, hemolyzed, 0.3 mM, 60 min, 37° C., threshold value 265) was 92.7% and the “Positive rate (PC3 cells)” value [2, 10] was 44%. For the same molecule, the “Positive rate (PC3 cells)” value [2, 11] was 85%, the “Positive rate (PC3 cells)” value [2, 12] was 88% and the “Positive rate (PC3 cells)” value [2, 13] was 31%. For the same molecule, the “Positive rate (PC3 cells)” value [2, 14] was 54%, the “Positive rate (PC3 cells)” value [2, 15] was 80% and the “Positive rate (PC3 cells)” value [2, 16] was 59%. The “Positive rate (PC3 cells)” value [2, 17] was 93%, the “Positive rate (PC3 cells)” value [2, 18] was 92% and the “Positive rate (PC3 cells)” value [2, 19] was 54%. The “Positive rate (PC3 cells)” value [2, 20] was 88%, the “Positive rate (PC3 cells)” value [2, 21] was 94% and the “Positive rate (PC3 cells)” value [2, 22] was 13%. For the same molecule, the “Positive rate (PC3 cells)” value [2, 23] was 18%, the “Positive rate (PC3 cells)” value [2, 24] was 83% and the “Positive rate (PC3 cells)” value [2, 25] was 80%. For the same molecule, the “Positive rate (PC3 cells)” value [2, 26] was 81% and the “Positive rate (PC3 cells)” value [2, 27] was 84%.
